{"source": "patent US20220000834A1", "about": "“NOVEL ADMINISTRATION METHOD” (SUMITOMO DAINIPPON PHARMA CO., LTD., priority 2019, published 2022)", "origin": "cited, not measured here", "key": {"[1]": {"system": "nerves in an injured part", "details": "Patent Documents 1 and 2"}, "nerve cells": {"system": "nerve cells", "details": "as low as"}}, "data": [{"molecule": "CC(=O)c1cc2c(=O)c3c(C(=O)O)c(O)c(O)cc3oc2c(C(C)=O)c1-c1coc2cc(O)c(O)c(C(=O)O)c2c1=O", "note": "[compound A]", "values": [{"measurement": "regeneration of nerves in an injured part", "setting": "[1]", "result": "accelerates the regeneration of nerves in an injured part"}]}, {"molecule": "Sema3A: class 3 semaphorin; suppresses growth of neurite growth cone (protein, UniProt Q14563 21-771, looked up) Semaphorin-3A: NYQNGKNNVPRLKLSYKEMLESNNVITFNGLANSSSYHTFLLDEERSRLYVGAKDHIFSFDLVNIKDFQKIVWPVSYTRRDECKWAGKDILKECANFIKVLKAYNQTHLYACGTGAFHPICTYIEIGHHPEDNIFKLENSHFENGRGKSPYDPKLLTASLLIDGELYSGTAADFMGRDFAIFRTLGHHHPIRTEQHDSRWLNDPKFISAHLISESDNPEDDKVYFFFRENAIDGEHSGKATHARIGQICKNDFGGHRSLVNKWTTFLKARLICSVPGPNGIDTHFDELQDVFLMNFKDPKNPVVYGVFTTSSNIFKGSAVCMYSMSDVRRVFLGPYAHRDGPNYQWVPYQGRVPYPRPGTCPSKTFGGFDSTKDLPDDVITFARSHPAMYNPVFPMNNRPIVIKTDVNYQFTQIVVDRVDAEDGQYDVMFIGTDVGTVLKVVSIPKETWYDLEEVLLEEMTVFREPTAISAMELSTKQQQLYIGSTAGVAQLPLHRCDIYGKACAECCLARDPYCAWDGSACSRYFPTAKRRTRRQDIRNGDPLTHCSDLHHDNHHGHSPEERIIYGVENSSTFLECSPKSQRALVYWQFQRRNEERKEEIRVDDHIIRTDQGLLLRSLQQKDSGNYLCHAVEHGFIQTLLKVTLEVIDTEHLEELLHKDDDGDGSKTKEMSNSMTPSQKVWYRDFMQLINHPNLNTMDEFCEQVWKRDRKQRRQRPGHTPGNSNKWKHLQENKKGRNRRTHEFERAPRSV", "values": [{"measurement": "concentration inducing regression of nerve cells", "setting": "nerve cells", "result": 10, "unit": "pM"}]}]}
